Consider six compounds from patent US7941211B2, “Preloading with macular pigment to improve photodynamic treatment of retinal vascular disorders” (ZeaVision, LLC., priority 2003, dated 2011).

Entries after “also recorded” stand apart in the source; their conditions may differ.

Data set [1] deals with inflammatory cytokines. Conditions: cited from earlier work.
Data set [2] has as its target Pi isoform of glutathione-S-transferase (GSTP1) (Homo sapiens, UniProt P09211). Conditions: in vitro conditions; cited from earlier work.
The test system of data set [3] is wet macular degeneration (subfoveal CNV). As to the kind of experiment: Case report: zeaxanthin pre-loading before verteporfin-laser PDT (Example 1). In kind it is in vivo, human. The text has this:
Such a candidate became known to the Applicant, in mid to late 2003. Because of certain personal and business connections, they were contacted by a person, who had been told that (i) […] eyesight was deteriorating rapidly, due to macular degeneration, and (ii) they should take care of any business, financial, legal, and other matters as soon as possible, before […] eyesight became even worse. This person made their plight (and their severe depression, due to the very negative prognosis they had received from an expert) known to the Applicant. In response, the Applicant informed the patient that they (the Applicant) had made a number of charitable donations to support research at the Johns Hopkins School of Medicine, where some of the world's foremost experts in macular degeneration work. […] (the Applicant) offered to see whether they could obtain expedited treatment for the patient, by making some phone calls to people they knew who worked there. The patient accepted that offer, and was seen and treated not long thereafter, by a top expert at the Wilmer Eye Institute, a highly respected eye care and research institute affiliated with Johns Hopkins.
This patient had been taking zeaxanthin for a number of weeks, prior to being examined and treated at the Wilmer Eye Institute. Their dosage was believed to be 20 milligrams per day, from taking two 10 milligram capsules (purchased from ZeaVision LLC) per day, usually with meals. They also took various other vitamin supplements during the course of their treatment, and afterwards.
An adult at the time, was suffering from wet macular degeneration.
At about that time, the patient began taking zeaxanthin supplements. It is believed that their typical daily dosage was 20 milligrams, from two 10 milligram capsules per day, usually taken with meals. The patient is also believed to have taken various other nutritional supplements during the relevant span of time, although their full contents, dosages, and durations are not known.
According to notes created by the ophthalmologist at the Wilmer Institute, obtained by the Applicant with approval from the patient, the patient suffered from subfoveal CNV in their right eye. […] According to the patient, the ophthalmologist advised them that their course of treatment likely would require 5 or 6 verteporfin-laser treatments, over a span of up to about 2 years.
His left eye was similar in appearance but questionable in extent, and there was no proven disease progression. Therefore, the ophthalmologist recommended careful monitoring but no PDT at that time.
Despite that advice, the patient continued taking zeaxanthin.

Data set [4] concerns wet macular degeneration. As to the kind of experiment: ZeaVision customer survey: zeaxanthin supplements and PDT treatment (Example 2). In kind it is in vivo, human. The text has this:
In the summer of 2004, the assignee company (ZeaVision LLC) began searching for customers who were: (i) taking zeaxanthin supplements they had purchased from ZeaVision, and (ii) had received one or more PDT treatments, for wet macular degeneration. They did this by sending postcards to customers, asking them to contact ZeaVision if they had received PDT treatment. Those customers who responded were briefly interviewed by phone by the customer support staff, who asked questions and filled in a worksheet that had been prepared to help guide the interviews. Most of these patients with age-related eye problems are in their 70's or 80's. They could not always provide exact dates when talking from memory during a phone call, and no efforts were made to check their actual medical records, or to consult with the ophthalmologists who performed their PDT treatments. In addition, nearly all of these patients were taking one or more additional vitamin supplements, such as lutein, Coenzyme Q10, and/or the AREDS formulation (all of which are commonly recommended by friends, relatives, and physicians), and at least one patient (identified as patient one, below) also received a steroid injection as part of their PDT therapy. […] Responses from patients who had been taking zeaxanthin for at least a month prior to a PDT treatment include the following examples: […]

The conditions of data set [5]: even at very high dosages; cited from earlier work.
Data set [6] has as its system retina. To be noted: in vivo, po; cited from earlier work.
The test system of data set [7] is vascular endothelial growth factor (VEGF). Conditions: verteporfin-laser treatment; cited from earlier work.
For data set [8], the system named is inflammatory chorioretinal diseases. Conditions: in vivo; cited from earlier work.
Data set [9] has as its system poultry. Conditions: compared against preparation of dietary 3R,3′R stereoisomer; test in Spain; cited from earlier work.
[10] abbreviates: right eye, January 2004, six months after PDT.
Where [11] appears, read: right eye, October 2003, three months after PDT, zeaxanthin 20 mg/day.
[12] abbreviates: Patient one, ZX from June 2004, first and only PDT about 2 months later, also steroid injection.

Chain of Pi isoform of glutathione-S-transferase (GSTP1) (P09211 whole entry, canonical isoform): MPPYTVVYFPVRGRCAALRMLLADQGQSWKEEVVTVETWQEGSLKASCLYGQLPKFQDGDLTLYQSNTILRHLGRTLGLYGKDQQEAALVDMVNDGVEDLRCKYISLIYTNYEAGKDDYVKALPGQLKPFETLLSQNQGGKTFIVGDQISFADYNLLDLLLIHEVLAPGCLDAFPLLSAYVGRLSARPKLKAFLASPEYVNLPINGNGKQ

As to `CC1=C(/C=C/C(C)=C/C=C/C(C)=C/C=C/C=C(C)/C=C/C=C(C)/C=C/C2=C(C)C(=O)[C@@H](O)CC2(C)C)C(C)(C)C[C@H](O)C1=O` [astaxanthin], the “effect on inflammatory and similar responses” value in data set [1] was “can help reduce inflammatory and similar responses”.
In the case of `CC1=C[C@H](O)CC(C)(C)[C@H]1/C=C/C(C)=C/C=C/C(C)=C/C=C/C=C(C)/C=C/C=C(C)/C=C/C1=C(C)C[C@@H](O)CC1(C)C` [lutein, reference compound], in [2], the “binding affinity of macular enzymes” value is “will not bind to lutein with any significant affinity”.
As for `CC1=C(/C=C/C(C)=C/C=C/C(C)=C/C=C/C=C(C)/C=C/C=C(C)/C=C/C2=C(C)C[C@@H](O)CC2(C)C)C(C)(C)C[C@H](O)C1` [zeaxanthin], the “findings in the eye not previously treated with PDT” value in data set [3] (left eye, March 2004, patient taking zeaxanthin, no PDT so far) is recorded as “growth of choroidal neovascularization compared to January 2004”. Moreover, in data set [3] (left eye, three months after PDT of March 2004), the “ophthalmologist's assessment of PDT results, as orally reported by the patient” value is “results were good”. In addition, in data set [3] (setting [10]), the “biomicroscopic findings (subretinal hemorrhage)” value is reported as “clearing of the subretinal hemorrhage that was noted along the inferonasal aspect of the treated area” and the fluorescein angiography entry is on record as “still showed some increased staining in the area where the hemorrhage had cleared”. Besides, the “leakage from CNV” value in data set [3] (right eye, March 2004) is on record as “no new leakage from CNV to suggest the need for any treatment”. In addition, in data set [3] (setting [11]), the “biomicroscopic findings (subretinal hemorrhage and fluid)” value is reported as “clearing of much of the subretinal hemorrhage along the nasal aspect of the posterior pole with no new subretinal fluid”; the fluorescein angiography entry is “no fluorescein leakage to suggest the need for any additional treatment at this time except at the inferonasal aspect of the treated area”. Besides, the “ophthalmologist's assessment of the PDT results” value in [3] (right eye, three months after first PDT, zeaxanthin 20 mg/day) was “much better than expected; also recorded: far better than expected”. Further, the “need for further PDT sessions (doctor's statement)” value in [4] (Patient four, ZX begun before second PDT session, first session without ZX did not stabilize) was “appeared to not need any more PDT sessions”. For the same compound, in data set [4] (setting [12]), the “need for further PDT treatments (doctor's statement)” value was “may not need to have any more treatments” and the “results of PDT treatment” value is “results were good”. In data set [4] (Patient three, October 2004), the “ophthalmologist's assessment of eyes at followup” value was “their eyes had stabilized”. In addition, in data set [4] (Patient three, ZX for some months before second PDT in May 2004, late June 2004), the “doctor's assessment of eyes at followup” value was “their eyes had gotten better, and appeared to be stable”. Further, the “vision in PDT-treated left eye” value in data set [4] (Patient two, 10 mg/day ZX from May 2004, four PDT sessions April-October 2004, October 2004) is given as 20/30. Moreover, in data set [4] (Patient two, 10 mg/day ZX, October 2004), the “patient's description of their results” value is recorded as “super-good”. In addition, the “ophthalmologist's assessment of sight” value in [4] (Patient two, 10 mg/day ZX, PDT on left eye) is “sight restored and improved”. In [4] (all patients surveyed), the adverse side effects entry is recorded as “did not cause any adverse side effects of any sort” and the “interference with efficacy of PDT treatment” value is on record as “did not interfere with the efficacy of PDT treatment”. Further, in [4] (in at least some patients), the overall benefit entry was “provided at least some benefits”. Further, in [4] (parent of respondent OD, PDT on right eye after three months of ZX), the “condition of PDT-treated eye (doctor's statement)” value was “appeared to be stable”. In data set [4] (several respondents with PDT in one eye only), the “condition of fellow eye with dry macular degeneration (respondents' statements)” value was “remain stable, or in some cases improve”. For the same compound, in data set [5], the “pathological changes in animal tests” value is “did not cause any pathological changes, of any sort”. The “binding affinity of macular enzymes” value in data set [2] is “relatively high affinity”.
Regarding `CC1=C(/C=C/C(C)=C/C=C/C(C)=C/C=C/C=C(C)/C=C/C=C(C)/C=C/C2=C(C)C(=O)CCC2(C)C)C(C)(C)CCC1=O` [canthaxanthin], the retinal deposition entry in data set [6] is listed as “abnormal retinal deposition”.
For the compound verteporfin, the “release of hormones that increase blood vessel growth (VEGF)” value in data set [7] is given as “stimulates, rather than suppresses”. Further, in [8], the “performance relative to verteporfin treatment of wet macular degeneration” value is “tended to perform better, and more effectively”.
For the compound meso-zeaxanthin, the “performance as colour additive for poultry” value in [9] is on record as “did not perform satisfactorily”.
